Data on three molecules can be found in patent US5187305A, “S-nitroso-N-alkonoylpenicillamines” (Glaxo Inc., priority 1990, dated 1993).

One data set relates to RAT AORTA. Description: Aorta Vasodilation Assay, rat aorta rings (endothelium removed, phenylephrine-contracted). The settings on record: 20% O2, without methylene blue; for RELATIVE POTENCY: compared with nitroprusside; for IC50: read-out: IC50 (relaxation). Set-up: species or system male Sprague-Dawley rats. An excerpt:
(§1) The thoracic aortas removed from euthanized male Sprague-Dawley rats (200-300 g) and male New Zealand, white rabbits (1.5-3.0 kg) are cleaned of adherent connective tissue and cut into rings 3 to 5 mm in length. Endothelium is removed by rolling the rings on moist filter paper. Rings are suspended in an organ chamber containing a physiological salt solution of (mM): NaCl, 118.4; KCl, 4.7; MgSO4.H2 O, 1.2; CaCl2.2H2 O, 2.5; KH2 PO4, 1.2; NaHCO3, 25.0; and dextrose, 11.1. The bathing solution is maintained at 37° C. and half of the tissues are aerated with 95% O2 /5% CO2 and half are aerated with 20% O2 /5% CO2 /75% N2. Tissues are mounted to isometric force displacement transducers and responses are recorded on a polygraph.
(§2) All rings are gradually stretched (over a 120 min. period) to a basal resting tension of 2 g (rat) and 4 g (rabbit), which is maintained throughout the assay. During the basal tension adjustment period, the rings are exposed to KCl (40 mM) two to three times to verify tissue contractility. During this period, the effectiveness of endothelium removal is confirmed by the absence of the characteristic relaxation seen with acetylcholine (1×10^-6 M) in endothelium-intact (but not endothelium-removed) rings contracted with phenylephrine (1×10^-7 M).
(§3) Methylene blue (1×10^-5 M) is added to half of the tissues aerated at 20% O2 and 95% O2 to inhibit basal cGMP accumulation. Phenylephrine (1×10^-7 M) is then added and the rings are allowed to obtain a stable contractile response after which time, SOD (100 U/mL) is added to the tissues. The test compound is then added in a cumulative fashion. After the stabilization of the response to the last concentration of the test compound, sodium nitroprusside (1×10^-4 M) is added to induce complete relaxation.

A further data set deals with RABBIT AORTA. Description: Aorta Vasodilation Assay, rabbit aorta rings (endothelium removed, phenylephrine-contracted). Set-up: species or system male New Zealand white rabbits. The settings on record: 20% O2, without methylene blue; for RELATIVE POTENCY: compared with nitroprusside; for IC50: Oryctolagus cuniculus, read-out: IC50 (relaxation).
Excerpt: as §1, §2, §3

The conditions of data set [1]: among nitrosothiols; cited from earlier work.
The conditions of data set [2]: compared with glyceryl trinitrate; cited from earlier work.
For data set [3] the following is noted: orally (including sublingually), rectally, vaginally, nasally or transdermally; cited from earlier work.

The structures appear in SMILES notation.

In the case of `CC(=O)N[C@@H](C(=O)Oc1ccccc1)C(C)(C)SN=O` [(I), R^1 = PHENYL R^2 = METHYL, N-Acetyl-3-(nitrosothio)-D-valine phenyl ester], the entries for the “RELATIVE POTENCY” value in the data set on RAT AORTA and with RABBIT AORTA were 3.04 and 3.25, respectively. Moreover, the IC50 (in general, the point on the concentration scale where inhibition reaches its midpoint) with RAT AORTA amounted to 7.6 nM; in the data set with RABBIT AORTA, 65 nM.

Take `O=[N+]([O-])OCC(CO[N+](=O)[O-])O[N+](=O)[O-]` [NITROGLYCERIN, glyceryl trinitrate]: in the data set with RAT AORTA, the “RELATIVE POTENCY” value amounted to 3.76 and the IC50 was found to be 9.4 nM. In addition, in the data set with RABBIT AORTA, the “RELATIVE POTENCY” value was 1.15 and the 50% inhibitory concentration (IC50) turned out to be 23 nM.

Turning to `CC(=O)N[C@@H](C(=O)O)C(C)(C)SN=O` [SNAP, N-acetyl-3-(nitrosothio)-D-valine], the Stability entry in data set [1] was “one of the most stable nitrosothiols known”. In the data set on RAT AORTA, the “RELATIVE POTENCY” value was determined as 56 and the half-inhibitory concentration (IC50) worked out at 140 nM. Moreover, the Tolerance entry in data set [2] is “much less of a problem than tolerance of gyceryl trinitrate”. In addition, the Absorption entry in data set [3] is on record as “poorly absorbed by these routes”. Also, in the data set with RABBIT AORTA, the “RELATIVE POTENCY” value is 8.0 and the IC50 worked out at 160 nM.
